The text below walks through data of ChEMBL document CHEMBL3045385, “Design, synthesis and molecular modelling of novel 4-thiazolidinones of potential activity against Gram positive bacteria” (2013).

Each structure is given as a SMILES string. Converted amounts (≈) assume the structure as drawn. The source made the active and inactive calls. No cut-off for these calls is given here.

Broadly, the MIC is the least concentration at which growth counts as inhibited.

The test system of assay [1] is Mycobacterium tuberculosis. In words: Antimycobacterium activity against Mycobacterium tuberculosis H37Rv at 100 ug/ml by Microplate Alamar Blue Assay. It counts as functional, organism-based.
A further assay concerns Pseudomonas aeruginosa. In words: Antibacterial activity against Pseudomonas aeruginosa ATCC 27855 at 6.25 to 100 ug/ml after 24 hr by two-fold serial dilution method. It counts as functional, organism-based.
In a further assay the test system is Escherichia coli. In words: Antibacterial activity against Escherichia coli ATCC 25922 at 6.25 to 100 ug/ml after 24 hr by two-fold serial dilution method. Type of assay: functional, organism-based.
A further assay deals with Bacillus subtilis. In words: Antibacterial activity against Bacillus subtilis ATCC 10400 after 24 hr by two-fold serial dilution method. Type of assay: functional. As to conditions: ATCC 10400, 24 h.
The subject of a further assay is Candida albicans. In words: Antifungal activity against Candida albicans ATCC 10231 at 6.25 to 100 ug/ml after 7 days by two-fold serial dilution method. Type of assay: functional, organism-based.
The subject of a further assay is Salmonella typhimurium. In words: Antibacterial activity against Salmonella enterica subsp. enterica serovar Typhimurium at 6.25 to 100 ug/ml after 24 hr by two-fold serial dilution method. It counts as functional, organism-based.
The next assay concerns Staphylococcus aureus. In words: Antibacterial activity against Staphylococcus aureus ATCC 25293 after 24 hr by two-fold serial dilution method. It counts as functional. As to conditions: ATCC 25293, 24 h.
The test system of a further assay is Shigella sonnei. In words: Antibacterial activity against Shigella sonnei ATCC 11060 at 6.25 to 100 ug/ml after 24 hr by two-fold serial dilution method. Type of assay: functional, organism-based.

Turning to `C#CCN1C(=O)C2(SCC(=O)N2NC(=O)C(C)Oc2cc(Cl)c(Cl)cc2Cl)c2ccccc21` (configuration not stated), the outcome (in assay [1]; in the assay on Pseudomonas aeruginosa; with Escherichia coli; with Candida albicans; in the assay with Salmonella typhimurium; in the assay on Shigella sonnei) was inactive. For the same molecule, the minimum inhibitory concentration (MIC) against Bacillus subtilis and against Staphylococcus aureus was 50 µg/mL (≈ 95.3 µM) each time.
For `Cc1ccc(C2(C)SCC(=O)N2NC(=O)C(C)Oc2cc(Cl)c(Cl)cc2Cl)cc1` (configuration not stated), the result (in assay [1]; in the assay with Pseudomonas aeruginosa; in the assay on Escherichia coli; in the assay with Candida albicans; with Salmonella typhimurium; in the assay with Shigella sonnei) was inactive. Besides, the MIC against Bacillus subtilis amounted to 6.25 µg/mL (≈ 13.2 µM); against Staphylococcus aureus, 12.5 µg/mL (≈ 26.4 µM).
For the molecule `Cc1ccc(C2SCC(=O)N2NC(=O)C(C)Oc2cc(Cl)c(Cl)cc2Cl)s1` (configuration not stated), the result (in assay [1]; with Pseudomonas aeruginosa; in the assay on Escherichia coli; in the assay with Candida albicans; in the assay on Salmonella typhimurium; in the assay with Shigella sonnei) was inactive. Also, the MIC in the assay with Bacillus subtilis and against Staphylococcus aureus was 12.5 µg/mL (≈ 26.8 µM) throughout.
With `CC(Oc1cc(Cl)c(Cl)cc1Cl)C(=O)NN1C(=O)CSC1c1ccncc1` (configuration not stated), the outcome (in assay [1]; in the assay with Pseudomonas aeruginosa; with Escherichia coli; in the assay with Candida albicans; in the assay with Salmonella typhimurium; with Shigella sonnei) was inactive. For the same molecule, the MIC with Bacillus subtilis and in the assay with Staphylococcus aureus was 6.25 µg/mL (≈ 14 µM) each time.
For `CC(Oc1cc(Cl)c(Cl)cc1Cl)C(=O)NN1C(=O)CSC12C(=O)Nc1ccccc12` (configuration not stated), the result (in assay [1]; with Pseudomonas aeruginosa; with Escherichia coli; with Candida albicans; with Salmonella typhimurium; with Shigella sonnei) was inactive. For the same molecule, the MIC in the assay on Bacillus subtilis was 50 µg/mL (≈ 103 µM); with Staphylococcus aureus, 25 µg/mL (≈ 51.4 µM).
On to `CC(Oc1cc(Cl)c(Cl)cc1Cl)C(=O)NN1C(=O)CSC1c1cccs1` (configuration not stated), for which the outcome (in assay [1]; with Pseudomonas aeruginosa; in the assay with Escherichia coli; in the assay with Candida albicans; in the assay with Salmonella typhimurium; in the assay with Shigella sonnei) was inactive. In addition, the MIC in the assay with Bacillus subtilis and in the assay on Staphylococcus aureus was 6.25 µg/mL (≈ 13.8 µM) each time.
For the molecule `CC(Oc1cc(Cl)c(Cl)cc1Cl)C(=O)NN1C(=O)CSC1c1cccnc1` (configuration not stated), the result (in assay [1]; in the assay on Pseudomonas aeruginosa; in the assay with Escherichia coli; with Candida albicans; with Salmonella typhimurium; in the assay with Shigella sonnei) was inactive. The figures for the MIC in the assay with Bacillus subtilis and in the assay on Staphylococcus aureus were 12.5 µg/mL (≈ 28 µM) and 6.25 µg/mL (≈ 14 µM), respectively.
Regarding `CC(Oc1cc(Cl)c(Cl)cc1Cl)C(=O)NN1C(=O)CSC1(C)c1ccc(Cl)cc1` (configuration not stated), the outcome (in assay [1]; in the assay on Pseudomonas aeruginosa; in the assay with Escherichia coli; in the assay on Candida albicans; in the assay with Salmonella typhimurium; with Shigella sonnei) was inactive. The MIC with Bacillus subtilis and against Staphylococcus aureus was 12.5 µg/mL (≈ 25.3 µM) throughout.
On to `CC(Oc1cc(Cl)c(Cl)cc1Cl)C(=O)NN1C(=O)CSC1c1cccc([N+](=O)[O-])c1` (configuration not stated), for which the result (in assay [1]; in the assay with Pseudomonas aeruginosa; with Escherichia coli; in the assay on Candida albicans; in the assay with Salmonella typhimurium; with Shigella sonnei) was inactive. In addition, the MIC against Bacillus subtilis and against Staphylococcus aureus was 12.5 µg/mL (≈ 25.5 µM) throughout.
